Laboratory results: patent US5324648A, “Substituted isocoumarins as serine protease inhibitors and anti-inflammatory agents” (Georgia Tech Research Corporation, priority 1992, dated 1994)
Read-outs that look alike come from different tables or passages of the source.

Columns and labels:
bovine thrombin = target: T1, bovine thrombin (Bos taurus, UniProt P00735); experiment: Inactivation rate of bovine thrombin; assay type: biochemical; settings: Table VIII; pH 7.5, 25° C; [I] 1.2-54 μM; read-out: kobs/[I]
T1 construct: bovine thrombin
Method in brief: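 Incubation method: isocoumarin inhibitor in Me2SO added to enzyme (0.01-2.3 μM) in 0.1M Hepes, 0.01M CaCl2, pH 7.5, 8-12% Me2SO, 25° C; aliquots withdrawn over time for residual activity against peptide thioester or 4-nitroanilide substrates. kobs from ln(vt/vo) vs time.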

human factor Xa = target: T2, human factor Xa (Homo sapiens, UniProt P00742); experiment: Inactivation rate of human factor Xa; assay type: biochemical; settings: Table VIII; pH 7.5, 25° C; [I] 3.6-44 μM; read-out: kobs/[I]
T2 construct: human factor Xa
Procedure: (§1) Inactivation rates of serine proteases by substituted isocoumarins were measured by the incubation method. An aliquot of inhibitor (25 or 50 μl) in Me2 SO was added to a buffered enzyme solution (0.01-2.3 μM) to initiate the inactivation. Aliquots (50 μl) were withdrawn at various intervals and the residual enzymatic activity was measured. Me2 SO concentration in the reaction mixture was 8-12% (v/v). 0.1 Hepes, 0.01M CaCl2, pH 7.5 buffer was utilized for trypsin and coagulation enzymes. 0.1M Hepes, 0.5M NaCl, pH 7.5 was utilized for other serine proteases. The inhibitor concentrations are shown in all the tables. Peptide thioesters or peptide nitroanilides with appropriate sequence were used as substrates for various serine proteases. All peptide thioester hydrolysis rates were measured with assay mixtures containing 4,4'-dithiodipyridine (ε324 =19800M^-1 cm^-1; Grasetti & Murray, Arch. Biochem. Biophys. 119, pp 41-49 (1967)). Peptide 4-nitroanilide nitroanilide hydrolysis was measured at 410 nm (ε410 =8800M^-1 cm^-1; Erlanger et al., Arch. Biochem. Biophys. 95, pp 271-278 (1961)). First order inactivation rate constant (kobs) were obtained from plots of ln (vt /vo) vs time, and the correlation coefficients were greater than 0.98.
(§2) ^a Conditions were as 0.1M Hepes, 0.01M CaCl2, pH 7.5 and 8-12%
(§3) Me2 SO and 25° C. Rate constants were measured by incubation
(§4) method unless otherwise noted. An aliquot of inhibitor was added to an
(§5) enzyme solution and aliquots removed with time and assayed for remaining
(§6) enzymatic activity. Firstorder rate constants, kobs were obtained
(§7) from the plots of ln(vt /vo) versus time.
(§8) ^a Inhibition rates were measured in 0.1M Hepes, 0.01M CaCl2, pH
(§9) 7.5 buffer, 8% Me2 SO and at 25° C.

human factor XIa = target: T3, human factor XIa (Homo sapiens, UniProt P03951); experiment: Inactivation rate of human factor XIa; assay type: biochemical; settings: Table VIII; pH 7.5, 25° C; [I] 0.7-0.8 μM; read-out: kobs/[I]
T3 construct: human factor XIa
Procedure: as §1, §2, §3, §4, §5, §6, §7, §8, §9

human factor XIIa = target: T4, human factor XIIa (Homo sapiens, UniProt P00748); experiment: Inactivation rate of human factor XIIa; assay type: biochemical; settings: Table VIII; pH 7.5, 25° C; [I] 3.6-4.9 μM; read-out: kobs/[I]
T4 construct: human factor XIIa
T4 sequence (P00748 373-615 limits assumed): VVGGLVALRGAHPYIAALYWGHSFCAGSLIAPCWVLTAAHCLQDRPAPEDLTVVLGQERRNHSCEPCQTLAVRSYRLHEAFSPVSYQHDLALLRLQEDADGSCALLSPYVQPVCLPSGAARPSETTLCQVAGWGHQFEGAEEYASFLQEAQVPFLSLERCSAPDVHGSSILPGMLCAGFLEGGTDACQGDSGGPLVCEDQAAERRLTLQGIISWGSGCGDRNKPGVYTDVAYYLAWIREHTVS
T4 sequence (P00748 20-372 partner limits assumed): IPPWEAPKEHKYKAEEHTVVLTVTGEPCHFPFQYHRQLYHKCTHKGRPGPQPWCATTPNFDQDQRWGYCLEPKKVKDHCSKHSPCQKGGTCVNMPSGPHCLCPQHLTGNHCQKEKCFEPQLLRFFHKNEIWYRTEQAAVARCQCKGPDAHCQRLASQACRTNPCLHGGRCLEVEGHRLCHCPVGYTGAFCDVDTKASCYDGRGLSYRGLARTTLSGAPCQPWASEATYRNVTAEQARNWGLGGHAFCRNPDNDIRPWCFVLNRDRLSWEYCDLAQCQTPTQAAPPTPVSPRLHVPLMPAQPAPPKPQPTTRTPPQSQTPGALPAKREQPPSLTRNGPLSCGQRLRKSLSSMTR
Procedure: as §1, §2, §3, §4, §5, §6, §7, §8, §9

human thrombin = target: T5, human thrombin (Homo sapiens, UniProt P00734); experiment: Inactivation rate of human thrombin; assay type: biochemical; settings: Table VIII; pH 7.5, 25° C; [I] 1.2-54 μM; read-out: kobs/[I]
T5 construct: human thrombin
Method in brief: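 Incubation method: enzyme (0.01-2.3 μM) mixed with inhibitor in 0.1M Hepes, 0.01M CaCl2, pH 7.5, 8% Me2SO, 25° C; residual activity sampled over time with peptide thioester or 4-nitroanilide substrates. kobs from ln(vt/vo) vs time plots.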

human lung tryptase = experiment: Inactivation rate of human lung tryptase; assay type: biochemical; settings: Table IX; pH 7.5, 25° C; [I] 0.42-0.47 μM
Procedure: as §1
^a Inactivation rates were measured at 0.1M Hepes, 0.5M NaCl, pH 7.5
buffer, 8% Me2 SO and 25° C.
as §8
(§10) 7.5 buffer for human plasmin; 25 mM Phosphate, 0.5M NaCl, 1 mM EDTA, pH
(§11) 7.5 buffer for rat skin tryptase and 0.1M Hepes, 0.5M NaCl, pH 7.5 for
(§12) human lung tryptase, human skin tryptase and rt-PA. All enzymes were
(§13) assayed with ZArg-SBzl (0.07 mM) in the presence of 4,4dithiodipyridine
(§14) (0.33 mM). Reaction mixtures contained 8% Me2 SO and assays were […]

rat skin tryptase = target: T6, rat skin tryptase (Rattus norvegicus, UniProt P27435); experiment: Inactivation rate of rat skin tryptase; assay type: biochemical; settings: pH 7.5, Table IX; pH 7.5, 25° C; [I] 0.42-0.51 μM; read-out: kobs/[I]
T6 construct: from tissue; host or cells: rat skin
Procedure: as §1
^b Inactivation rates were measured at 25 mM phosphate, 0.5M NaCl, 1
mM EDTA, pH 7.5 buffer, 9% Me2 SO and 25° C.
as §8, §10, §11, §12, §13, §14

[1] = target: recombinant human tissue plasminogen activator (Homo sapiens, UniProt P00750); experiment: Inactivation rate of recombinant human tissue plasminogen activator; assay type: biochemical; settings: pH 7.5, Table IX; pH 7.5, 25° C; [I] 3.5-5.0 μM; read-out: kobs/[I]
Procedure: as §1
^a Inactivation constants were measured at 0.1M Hepes, 0.5M NaCl (or
as §8, §10, §11, §12, §13, §14

pig plasma [2] = experiment: Prothrombin time (PT), pig plasma; settings: [I] 32 μM
pig plasma [3] = experiment: Activated partial thromboplastin time (APTT), pig plasma; settings: [I] 32 μM
[4] = target: T7, porcine pancreatic elastase (PPE) (Sus scrofa, UniProt P00772); experiment: Inactivation of porcine pancreatic elastase (PPE); assay type: biochemical; settings: Table X; after 20 min incubation
T7 construct: from tissue; host or cells: porcine pancreas (from the name)

[5] = target: T8, human leukocyte elastase (HLE) (Homo sapiens, UniProt P08246); experiment: Inactivation of human leukocyte elastase (HLE); assay type: biochemical; settings: pH 7.5, Table X, biphasic inhibition
T8 construct: from tissue; host or cells: human leukocytes (from the name)
T8 sequence (P08246 30-267): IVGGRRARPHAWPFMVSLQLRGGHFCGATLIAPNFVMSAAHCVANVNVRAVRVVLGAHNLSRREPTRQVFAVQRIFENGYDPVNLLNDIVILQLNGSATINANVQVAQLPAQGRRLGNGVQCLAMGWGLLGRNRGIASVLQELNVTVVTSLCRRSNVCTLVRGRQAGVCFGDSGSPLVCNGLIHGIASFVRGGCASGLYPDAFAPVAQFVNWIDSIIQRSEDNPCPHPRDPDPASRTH

chymotrypsin = chymotrypsin (Bos taurus, UniProt P00766); experiment: Inactivation of chymotrypsin; assay type: biochemical, bovine; settings: Table X; pH 7.5, 25° C; [I] 0.9-43 μM; read-out: kobs/[I]
cathepsin G = target: T9, cathepsin G (Homo sapiens, UniProt P08311); experiment: Inactivation of cathepsin G; assay type: biochemical; settings: Table X; pH 7.5, 25° C; [I] 33-46 μM; read-out: kobs/[I]
T9 construct: from tissue; host or cells: human leukocytes
T9 sequence (P08311 21-255): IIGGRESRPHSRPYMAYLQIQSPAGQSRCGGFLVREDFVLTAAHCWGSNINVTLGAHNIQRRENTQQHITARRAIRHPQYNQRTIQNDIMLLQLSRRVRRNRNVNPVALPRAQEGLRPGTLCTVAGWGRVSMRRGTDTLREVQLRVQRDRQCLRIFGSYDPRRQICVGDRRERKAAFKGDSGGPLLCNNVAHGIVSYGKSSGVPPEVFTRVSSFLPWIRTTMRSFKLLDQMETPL

human plasmin = target: T10, human plasmin (Homo sapiens, UniProt P00747); experiment: Inactivation rate of human plasmin; assay type: biochemical; settings: Table IX; 0.01M CaCl2, pH 7.5, 25° C; [I] 8.3-41 μM; read-out: kobs/[I]
T10 construct: human plasmin; from tissue; host or cells: human plasma
T10 sequence (P00747 581-810 limits assumed): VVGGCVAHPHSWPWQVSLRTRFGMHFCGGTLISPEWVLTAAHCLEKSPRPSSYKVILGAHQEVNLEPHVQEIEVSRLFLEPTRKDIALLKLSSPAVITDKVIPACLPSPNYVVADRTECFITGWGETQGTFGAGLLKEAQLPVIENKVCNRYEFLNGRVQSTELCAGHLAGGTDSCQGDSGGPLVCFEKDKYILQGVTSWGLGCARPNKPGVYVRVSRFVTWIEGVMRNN
T10 sequence (P00747 97-580 partner limits assumed): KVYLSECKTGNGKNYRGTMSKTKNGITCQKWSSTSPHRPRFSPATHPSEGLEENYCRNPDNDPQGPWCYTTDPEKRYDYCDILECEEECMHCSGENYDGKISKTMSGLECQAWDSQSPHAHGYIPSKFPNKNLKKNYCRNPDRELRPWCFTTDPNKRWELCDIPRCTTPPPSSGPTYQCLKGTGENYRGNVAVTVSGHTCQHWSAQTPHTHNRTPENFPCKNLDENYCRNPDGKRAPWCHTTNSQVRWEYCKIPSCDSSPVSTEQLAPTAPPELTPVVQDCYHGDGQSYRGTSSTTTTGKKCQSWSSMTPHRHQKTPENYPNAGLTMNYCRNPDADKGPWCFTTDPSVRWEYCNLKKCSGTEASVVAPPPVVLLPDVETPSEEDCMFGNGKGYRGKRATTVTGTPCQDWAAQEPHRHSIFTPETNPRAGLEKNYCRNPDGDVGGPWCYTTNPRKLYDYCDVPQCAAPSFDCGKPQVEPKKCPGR

recombinant human tissue plasminogen activator, sequence (P00750 36-562): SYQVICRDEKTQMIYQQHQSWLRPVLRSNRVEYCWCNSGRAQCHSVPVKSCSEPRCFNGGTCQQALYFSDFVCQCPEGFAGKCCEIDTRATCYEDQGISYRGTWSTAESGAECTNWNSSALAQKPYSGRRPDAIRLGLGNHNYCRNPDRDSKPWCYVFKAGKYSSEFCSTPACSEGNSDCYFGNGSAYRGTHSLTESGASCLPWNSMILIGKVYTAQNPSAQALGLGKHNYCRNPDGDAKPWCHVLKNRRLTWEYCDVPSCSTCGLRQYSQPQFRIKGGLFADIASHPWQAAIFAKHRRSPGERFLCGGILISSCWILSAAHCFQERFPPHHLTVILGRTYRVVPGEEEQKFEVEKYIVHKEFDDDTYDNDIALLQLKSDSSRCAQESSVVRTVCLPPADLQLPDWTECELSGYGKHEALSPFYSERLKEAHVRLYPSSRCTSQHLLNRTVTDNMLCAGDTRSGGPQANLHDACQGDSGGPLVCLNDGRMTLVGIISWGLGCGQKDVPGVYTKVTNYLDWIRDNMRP
T2 sequence (P00742 235-488 limits assumed): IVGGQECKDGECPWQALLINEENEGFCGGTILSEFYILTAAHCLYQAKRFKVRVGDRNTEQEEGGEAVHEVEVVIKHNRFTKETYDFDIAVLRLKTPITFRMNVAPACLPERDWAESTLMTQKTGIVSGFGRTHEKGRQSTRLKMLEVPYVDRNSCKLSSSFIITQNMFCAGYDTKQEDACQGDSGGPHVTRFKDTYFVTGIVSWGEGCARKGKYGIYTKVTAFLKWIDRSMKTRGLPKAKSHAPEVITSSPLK
T2 sequence (P00742 41-179 partner limits assumed): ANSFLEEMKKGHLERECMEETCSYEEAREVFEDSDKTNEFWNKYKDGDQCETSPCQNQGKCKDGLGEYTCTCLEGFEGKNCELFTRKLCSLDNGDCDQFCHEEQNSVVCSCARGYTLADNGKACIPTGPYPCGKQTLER
T6 sequence (P27435 29-273): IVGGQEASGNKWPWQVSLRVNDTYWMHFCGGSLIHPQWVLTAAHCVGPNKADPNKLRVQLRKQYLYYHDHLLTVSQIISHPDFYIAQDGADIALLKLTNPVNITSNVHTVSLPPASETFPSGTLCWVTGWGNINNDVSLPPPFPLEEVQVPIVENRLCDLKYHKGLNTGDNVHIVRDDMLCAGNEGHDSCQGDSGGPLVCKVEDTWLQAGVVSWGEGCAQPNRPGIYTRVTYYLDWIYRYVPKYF
T3 sequence (P03951 388-625 limits assumed): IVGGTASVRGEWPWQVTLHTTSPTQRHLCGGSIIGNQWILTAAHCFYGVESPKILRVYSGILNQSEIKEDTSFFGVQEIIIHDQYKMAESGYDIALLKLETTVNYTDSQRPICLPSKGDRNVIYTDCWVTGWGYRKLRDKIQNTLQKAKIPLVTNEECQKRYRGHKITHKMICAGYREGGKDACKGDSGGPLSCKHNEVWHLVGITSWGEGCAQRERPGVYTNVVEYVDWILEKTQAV
T3 sequence (P03951 19-387 partner limits assumed): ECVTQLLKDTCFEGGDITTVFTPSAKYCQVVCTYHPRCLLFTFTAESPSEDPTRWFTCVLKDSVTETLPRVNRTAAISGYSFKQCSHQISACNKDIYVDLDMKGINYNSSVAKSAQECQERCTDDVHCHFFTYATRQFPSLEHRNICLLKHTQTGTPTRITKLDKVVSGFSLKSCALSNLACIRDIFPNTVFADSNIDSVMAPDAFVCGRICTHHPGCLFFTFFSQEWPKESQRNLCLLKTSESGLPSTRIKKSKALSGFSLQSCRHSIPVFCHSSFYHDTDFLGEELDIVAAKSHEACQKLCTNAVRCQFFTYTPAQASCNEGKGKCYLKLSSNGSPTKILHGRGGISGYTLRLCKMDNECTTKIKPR
T7 sequence (P00772 27-266): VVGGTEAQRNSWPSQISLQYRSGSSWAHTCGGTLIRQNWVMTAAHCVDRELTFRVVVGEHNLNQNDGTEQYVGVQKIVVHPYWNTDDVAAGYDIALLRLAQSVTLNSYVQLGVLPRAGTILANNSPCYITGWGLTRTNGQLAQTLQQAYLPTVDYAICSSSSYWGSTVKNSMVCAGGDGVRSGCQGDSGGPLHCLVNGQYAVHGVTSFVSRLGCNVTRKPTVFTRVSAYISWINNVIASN

kinact/KI (bovine thrombin) [M⁻¹ s⁻¹] | kinact/KI (human factor Xa) [M⁻¹ s⁻¹] | kinact/KI (human factor XIa) [M⁻¹ s⁻¹] | kinact/KI (human factor XIIa) [M⁻¹ s⁻¹] | kinact/KI (human thrombin) [M⁻¹ s⁻¹] | kobs/[I] (human lung tryptase) | kinact/KI (rat skin tryptase) [M⁻¹ s⁻¹] | kinact/KI [1] [M⁻¹ s⁻¹] | percentage of inhibition [4] [%] | kinact/KI ([5]; read-out: kobs/[I] (biphasic, first value)) [M⁻¹ s⁻¹] | kinact/KI ([5]; read-out: kobs/[I] (biphasic, second value)) [M⁻¹ s⁻¹] | kinact/KI (chymotrypsin) [M⁻¹ s⁻¹] | kinact/KI (cathepsin G) [M⁻¹ s⁻¹] | kinact/KI (human plasmin) [M⁻¹ s⁻¹] | Compound | PT (pig plasma [2]) [s] | APTT (pig plasma [3]) [s]
16800 | 2340 | 105000 | 45000 | 11700 | 280,000 M^-1 s^-1 | 200000 | 19000 | – | – | – | – | – | – | N=C(N)SCCOc1oc(=O)c2cc(NC(=O)NCc3ccccc3)ccc2c1Cl [PhCH2 NHCONH-CiTEtOIC, 7-(benzylcarbamoylamino)-4-chloro-3-(2-isothiureidoethoxy)isocoumarin] | 31.1 | > 120
41300 | – | – | – | 21000 | – | – | – | 21 | 5100 | 360 | 260 | 35 | 27800 | C[C@H](NC(=O)Nc1ccc2c(Cl)c(OCCSC(=N)N)oc(=O)c2c1)c1ccccc1 [S-C6 H5 (CH3)CHNHCONH-CiTEtOIC, 7-((S)-α-methylbenzylcarbamoylamino)-4-chloro-3-(2-isothiureidoethoxy)isocoumarin] | 30.0 | > 120
